Measured values published in patent US8765729B2, “Cancer therapy” (Aeolus Sciences, Inc., priority 2001, dated 2014).

Tests used:
[1] = tested on: tumor angiogenesis, R230 mammary adenocarcinoma cells in Z-chambers; assay: Tumor angiogenesis in Z-chambers (microvessel density); assay type: in vivo, Fisher-344 rats; conditions: 6 mg/kg i.p. 24 hours before implantation
Protocol: FIG. 5. Antiangiogenesis: Animals were pretreated with different SOD mimetics (6 mg/kg i.p.) 24 hours before implantation of 2.5 mil./ml R230 mammary adenocarcinoma cells in Z-chambers.
Immunohistochemistry was carried out using procedures described by Hsu et al (Hsu et al., j. Histochem. Cytochem. 29:577-580 (1981)). Briefly, paraffin embedded tissues were sectioned (5 microns) and antigen retrieval was performed using citrate buffer from Biogenex (San Ramon, Calif.). Tissues were treated with primary antibody against tissue transglutaminase (TG100, 1:10, endothelial cell marker, non-reactive to Factor XIIIa) (Neomarkers, Calif.) for 1 hour at 37° C. Secondary antibody (Jackson ImmunoResearch. PA) and tertiary. (Vector, Calif.) antibodies were incubated for 25 minutes at 37° C. and the location of the reaction was visualized with 3,3-diaminobenzidine tetrahydrochloride Sigma (St. Louis, Mo.). Slides were counterstained with hematoxylin and mounted with coverslips. Controls for the immunohistochemistry were treated with mouse IgG instead of primary antibody and were negative in any reactivity. […] Microvessel density was calculated as described by Weidner et al (Weidner et al, J. New Engl. J. Med. 324:1-8 (1991)). Briefly, six hot spots or areas with highest vessels marked by the vessel marker at a high power field (400×) per sample section were selected and number of blood vessel counted. […]

[2] = SOD activity (cytochrome C method); assay type: biochemical
Excerpt: FIGS. 1A-1H show the structures of certain generic and specific definitions of compounds suitable for use in the present invention. With reference to FIG. 1C, mimetics of the invention can be of Formula I or Formula II, or dimeric forms thereof, an example of a dimeric form being shown in FIG. 1D. With reference to FIG. 1H, the SOD activities of certain of the depicted compounds are shown in Table 1 (as measured by the cytochrome C method): […]

A549 cells = assay: 3H-thymidine incorporation (DNA synthesis) in A549 cells; assay type: cell-based, human; conditions: 4 μM, 24 hours
Protocol: FIG. 16. A549 cells were grown 50% confluence in 24 well plates in complete media. Cells were then incubated for 24 hours with the above concentrations of drug and ^3H-thymidine (to assess DNA synthesis). After three washes in PBS, the cells were homogenized and the radioactivity counted. At 4 μM MnTE-2-PyP, there was a 50% inhibition of incorporation of ^3H-thymidine.

B16 melanoma tumor = B16 melanoma tumor growth in mice treated with SOD mimetic; assay type: in vivo; conditions: 6 mg/kg i.p.
Protocol: FIGS. 2A-2C. (FIG. 2A) B16 melanoma tumor treated with SOD mimetic. The mimetic was 10113 at a dose of 6 mg/kg given intraperitoneally qd for 5 days. (FIG. 2B) Mammary adenocarcinoma treated with SOD mimetic. 10113 was given intraperitoneally at a dose of 6 mg/kg/day for 16 days. Radiation therapy (RT), 21 Gy, was given on day 8 or 9. (FIG. 2C) Fischer 344 rats with subcutaneously implanted R3230 AC mammary adenocarcinomas received Radiation treatment (21 Gy Day 1), AEOL 10113 (6 mg/kg/day IP Day 1 to 20), the combination Radiation and AEOL 10113 (as above), or Control treatment.
The effect of the MnTE-2-PyP (manganese(III) tetrakis(N-ethylpyridinium-2-yl)porphyrin) on tumor growth and radiation response in two tumor models has been tested. […] The effect of the SOD mimetic. MnTE-2-PyP, on tumor growth and radiation response has been tested in a rat model.

Structure (SMILES): CC[n+]1ccccc1-c1c2nc(c(-c3cccc[n+]3CC)c3ccc([n-]3)c(-c3cccc[n+]3CC)c3nc(c(-c4cccc[n+]4CC)c4ccc1[n-]4)C=C3)C=C2.[Mn+3] [Compound 10113, manganese(III)tetrakis(N-ethylpyridinium-2-yl)porphyrin]
- tumor angiogenesis [1]: Significant inhibition of tumor angiogenesis
- SOD activity [2]: 10,648 U/mg
- inhibition of incorporation of 3H-thymidine (A549 cells): 50%
- inhibition of tumor growth (B16 melanoma tumor; mice with B16 melanoma): significant inhibition of tumor growth
- Tumor doubling time (B16 melanoma tumor; control group 2 days): 4 days
